Reference: patent US20250041307A1, “Uses of Bicyclic Compounds for the Treatment of Diseases” (Athira Pharma, Inc., priority 2021, published 2025)

Tests used:
[1] = test system: MDCK cells; assay: Cell scattering behavior assay; assay type: cell-based; set-up: key: − indicates that the compound failed to significantly promote cell scattering behavior; + indicates maximum potency at or above 100 nM; ++ indicates maximum potency at or above 10 nM; +++ indicates maximum potency at or above 1 nM; ++++ indicates maximum potency at or above 0.1 nM; settings: with 5 ng/mL HGF, 24 hours, normalized particle count compared to HGF treatment alone
Procedure: MDCK cells were grown under normal conditions and observed to spontaneously form tight colonies as they proliferate. MDCK cells respond to HGF treatment by moving away from each other (scattering), which is quantified to assess the amount of HGF/MET activation in the cell population. In this experiment, MDCK cells were plated in a 96-well format, treated with HGF and exemplary compounds, fluorescently stained, imaged in large fields, and scattering behavior was quantified. Quantification was determined by analyzing the number of continuous groups of cells compared to the total stained area imaged (normalized particle counts).
MDCK cells were plated at low density in black-walled imaging plates and allowed to attach overnight at 37° C. and 5% CO2 in DMEM+10% FBS. Cells were then starved to 2 hours in DMEM without FBS (“starve media”). Samples containing exemplary compounds were prepared in DMEM without FBS and included 5 ng/mL HGF protein (“treatment media”). A control curve was also prepared for each plate using HGF concentrations of 0, 5, 10, and 20 ng/mL. Starve media was replaced with treatment media and cells were incubated for 24 hours at 37° C. and 5% CO2.
After incubation, cells were fixed by replacing treatment media with cold ethanol and incubating for 20 minutes at 4° C. Cells were then rehydrated by washing with PBS and then with stain solution (fluorescent wheat germ agglutinin; WGA488 at 20 μg/mL in PBS). Cells were incubated with stain solution 30 minutes at room temperature after which stain solution was replaced with fresh PBS.
Fields of cells were imaged using an iCyte high content imager in the green wavelength. Images were converted to binary and analyzed for particle size and particle count. For the purpose of analysis, an individual cell touching no other cells or separated colonies of cells were identified as particles, and particle counts were normalized by the total signal area to account for differences in cell number. […] Compound potency was assessed by statistical increase in normalized particle count compared to HGF treatment alone.

[2] = Parallel artificial membrane permeability assay (PAMPA); assay type: in vitro ADME; settings: PBS, room temperature for 5 hours, 200 uM in donor well
Procedure: Bioavailable drugs must permeate the cellular membranes of the lining of the digestive tract. To estimate the penetrability of exemplary compounds, the in vitro parallel artificial membrane permeability assay (PAMPA) was utilized.
Test compounds must have a standard curve in the final read plate to determine partitioned concentration of each drug. A 6-point standard curve was prepared for each compound from 0 to 200 μM in phosphate-buffered saline (PBS).
Test compound solution (300 μL in PBS) was added to the donor (bottom) well of the PAMPA plate in 5 replicates and PBS vehicle (200 μL) was added to the acceptor (top) wells of appropriate wells to match the loading of the donor plate. The bottom and top of the PAMPA plates were then sandwiched together. The PAMPA plates were then incubated at room temperature for 5 hours. After incubation, 150 μL of donor solution was added to a UV compatible plate containing the corresponding standard curve. 150 μL of acceptor well solution was added adjacent to the corresponding standard curve and donor well samples for that compound. The plate was then read using a UV plate reader.
Permeability and membrane retention were then calculated based on the following formulas:
where: • A=filter area (0.3 cm^2); • VD=donor well volume (0.3 mL); • VA=acceptor well volume (0.2 mL); • t=incubation time (seconds); • CA(t)=compound concentration in acceptor well at time t; • CD(t)=compound concentration in donor well at time t; and
where: • CD(t), VD, CA(t), and VA are as defined for equation 1, and • C0=initial concentration in donor well (200 uM).

[3] = test system: hepatocyte (HepG2) cell cultures; assay: Cytotoxicity assay (LDH release); assay type: cell-based; settings: HepG2 cells, 48 hours, 0.1 to 100 μM
Procedure: This experiment was designed to obtain a preliminary assessment of cytotoxicity.
HepG2 cells were plated in 96-well cell culture plates and allowed to attach overnight at 37° C., 5% CO2 in EMEM+10% FBS. Treatments were made in complete media (EMEM+10% FBS) and included a dilution series of test compounds from 0.1 to 100 μM. Known cytotoxin cerivastatin was used as a positive assay control and prepared at a final concentration of 0.5 μM.
Growth media was replaced with treatment media (EMEM+10% FBS containing test compound dissolved in DMSO) and cells were incubated with test compounds for 48 hours. At the end of the incubation period, supernatant media from each well was transferred to a new plate and LDH assay working solution was added. LDH assay solution undergoes a colorimetric reaction in proportion to the amount of lactate dehydrogenase (an intracellular protein that was only found in the media in the presence of lysed cells) in the media. Color reaction was quantified by measurement of absorbance at a wavelength of 490 nm.
The signal range of the assay was determined by no manipulation in a negative control treatment and full lysis of all cells in a lysis control sample. Compounds that increase the level of cytotoxicity more than 20% above negative control samples were considered cytotoxic in this assay.

[4] = test system: HGF/MET system; assay: Phospho-MET ELISA; assay type: cell-based; set-up: key: − indicates that the compound failed to significantly augment MET phosphorylation; + indicates maximum potency at or above 100 nM; ++ indicates maximum potency at or above 10 nM; +++ indicates maximum potency at or above 1 nM; ++++ indicates maximum potency at or above 0.1 nM; settings: HEK293 cells; with 1 ng/mL recombinant HGF; 15 minutes; augmentation of MET phosphorylation (pMET ELISA)
Procedure: Compounds were screened for potency towards the HGF/MET system using phospho-MET (pMET) ELISA kits (Cell Signaling). pMET levels were detected in samples having low (1 ng/mL) and high (10 ng/mL) concentrations of HGF.
HEK293 cells were prepared by passage into 6-well multi-plates and grown at 37° C. at 5% CO2 in DMEM+10% FBS until approximately 90% confluent. Cells were then starved for at least 8 hours in serum-free growth media.
Exemplary compounds were prepared in DMEM+0.1% FBS, diluted and added to treatment media with 1 ng/mL recombinant HGF protein (R&D Systems). Cells were incubated in triplicate at 37° C. and 5% CO2 for 15 minutes. Samples were then treated with 180 μL ice-cold RIPA (radioimmunoprecipitation assay) buffer and cells were lysed on ice for 15 minutes. Lysates were cleared by centrifugation at 16,000-g for 15 minutes and the supernatant was retained. Samples were normalized using a BCA assay of lysates to determine protein concentrations across the samples.
Between 50 and 100 μg total protein lysate was loaded into ELISA wells in pMET Sandwich ELISA kit (Cell Signaling Catalog #7227C), ensuring equal protein load in each well. The ELISA was processed according to manufacturer's instructions. After color developed, absorbance was read on an optical plate reader at 450 nm.
Potency measurements were determined using peak efficacy by scaling test compound dose treatments along a scale of 1-10 between 1 ng/mL and 10 ng/mL HGF doses according to the following formula: […]
where y is the normalized data-point, x is the raw data point, A is the mean HGF at 1 ng/mL, and B is the mean HGF at 10 ng/mL.

[5] = test system: Rat primary cortical neuron cultures; assay: Protection from neurotoxicity in vitro (Cell Titer-Glo viability); assay type: cell-based; settings: for Protection of cell viability, statistical significance vs. insult control: Positive Control (1 uM)
Procedure: HGF/MET signaling activation is expected to protect cells, including neurons, from cell death. […] Hydrogen peroxide (H2O2) treatment produces toxic oxidative stress. Bacteria-derived lipopolysaccharide (LPS) treatment induces inflammatory cell death. Treatment with excess glutamate (Glut) produces excitotoxicity in neuron cultures. Treatment with 1-methyl-4-phenylpyridinium (MPP^+) causes cell death by inhibition of mitochondrial function.
Rat primary cortical neuron cultures were grown at 37° C., 5% CO2 in Complete Neurobasal Medium supplemented with B27/GDNF/BDNF containing 10% FBS until maturity and were then seeded in 384-well plate at 5,000 cells/well. Cultures were then treated for 15 minutes with 1 uM, 100 nM, 10 nM, 1 nM, or 0.1 nM of compound 1a. Cells were then subjected to individual conditional insults for 24 hours at the following concentrations: H2O2 at 1 uM, LPS at 1 uM, glutamate at 25 uM, MPP+ at 500 uM. All treatments contained recombinant human HGF (R&D Systems) at a concentration of 5 ng/ml.
To quantify neuroprotection, cell viability was measured with the Cell Titer-Glo Luminescent Cell Viability Assay (Promega, Cat #G7571). Data was normalized to DMSO+HGF control set at 100% cell viability. Statistical analyses for each group (n=4) were performed using one-way ANOVA with Tukey's Multiple comparison test.
Data is reported as statistical significance vs. insult control, with NS=not significant, +=p<0.05, ++=p<0.01, and +++=p<0.001.

[6] = test system: scopolamine-induced cognitive impairment; assay: Scopolamine-induced cognitive impairment, T-maze spontaneous alternation task; assay type: in vivo, CD-1 mice; settings: mice; scopolamine only, 0.89 mg/kg
Excerpt: Mild cognitive impairment can be assessed in rodent models via delivery of various compounds that interfere with normal neurotransmitter signaling. Scopolamine is a compound that is well-known to antagonize muscarinic acetylcholine receptors, nicotinic receptors, as well as glutamatergic receptors such as NMDA receptors. Thus, delivery of scopolamine results in cognitive impairment, which can be assessed in a variety of cognitive tasks. Positive modulation of the HGF/MET system can promote NMDA receptor activation and results in pro-cognitive effects. Two test compounds, Compound 1a and Compound 5a, were evaluated for their ability to protect against scopolamine-induced cognitive impairment.
In this study, mild cognitive impairment was modeled in otherwise healthy male CD-1 mice (4-5 weeks old at study start) by acute delivery of 0.89 mg/kg scopolamine (dissolved in saline). Test compounds were administered via oral gavage 0.5 hours prior to scopolamine exposure, and cognitive performance was assessed in the T-maze spontaneous alternation task 0.5 hours after scopolamine exposure (1 hour following test compound exposure). The experimental protocol consisted of one single session, which started with 1 “forced-choice” trial, followed by 14 “free-choice” trials. In the first “forced-choice” trial, the animal was confined 5 seconds in the start arm and was then released while either the left or right goal arm was blocked by a horizontal door. After the mouse entered the open goal arm and returned to the start position, the left or right goal door was opened, and the animal was allowed to choose freely between the left and right goal arm (“free choice trials”). The animal was considered to have entered into an arm when it placed its four paws in the arm. Normal animals will choose to explore the previously-unexplored arm, which is recorded as a spontaneous alternation. […] The session was terminated, and the animal was removed from the maze as soon as 14 free-choice trials had been performed or 10 min had elapsed, whichever event occurred first.
This percentage was defined as entry into a different goal arm of the T maze over successive trials (e.g., left-right-left-right) and was calculated using the formula: (% alternations=Number of Alternations/14*100). Both compounds attenuated the degree of scopolamine-induced cognitive impairment, as indicated by increased percent of spontaneous alternations compared to scopolamine-only controls. Statistical analysis was accomplished via 1-way ANOVA with Dunnet's multiple comparisons post-test.

Structure (SMILES) | Potency [1] | Papp at 5 h, 200 uM [2] | Cytotoxicity [3] | Potency [4] | also measured
CCC(C)CN1CC2N(C(=O)c3ccc(O)nc3)CCC(=O)N2[C@@H](C)C1=O (some centres unmarked) [Compound 4a] | + (+ indicates maximum potency at or above 100 nM) | > 10 ×10⁻⁶ cm/s | ++++ (++++ indicates non-toxic at 100 μM) | + (+ indicates maximum potency at or above 100 nM) | 
CCC(C)N1CC2N(Cc3ccc(O)cc3)CCC(=O)N2CC1=O (centres unmarked) [Compound 9] | − | > 2 ×10⁻⁶ cm/s | ++++ (++++ indicates non-toxic at 100 μM) | − | 
CCC(C)CN1CC2N(Cc3ccc(F)cc3)CCC(=O)N2C(C)C1=O (centres unmarked) [Compound 42] | +++ (+++ indicates maximum potency at or above 1 nM) | > 2 ×10⁻⁶ cm/s | ++++ (++++ indicates non-toxic at 100 μM) | ++++ (++++ indicates maximum potency at or above 0.1 nM) | 
CCC(C)CN1CC2N(Cc3ccc(OC(F)F)cc3)CCC(=O)N2C(CC(=O)O)C1=O (centres unmarked) [Compound 49, 2-(1-(4-(difluoromethoxy)benzyl)-8-(2-methylbutyl)-4,7-dioxooctahydro-2H-pyrazino[1,2-a]pyrimidin-6-yl)acetic acid] | ++++ (++++ indicates maximum potency at or above 0.1 nM) | > 2 ×10⁻⁶ cm/s | ++++ (++++ indicates non-toxic at 100 μM) | ++++ (++++ indicates maximum potency at or above 0.1 nM) | 
CC1C(=O)N(CCC2CCC2)CC2N(Cc3ccc(C(F)(F)F)c(Cl)c3)CCC(=O)N12 (centres unmarked) [Compound 51] | +++ (+++ indicates maximum potency at or above 1 nM) | < 2 ×10⁻⁶ cm/s | +++ (+++ indicates non-toxic at 10 μM) | +++ (+++ indicates maximum potency at or above 1 nM) | 
C[C@]12N[C@H](Cc3ccccc31)c1ccccc12 [MK-801, reference compound] |  |  |  |  | Protection of cell viability, statistical significance vs. insult control ([5]; insult Glutamate (25 uM) 24 hours): +++ (+++=p<0.001); Protection of cell viability, statistical significance vs. insult control ([5]; insult H2O2 (1 uM) 24 hours): +++ (+++=p<0.001); Protection of cell viability, statistical significance vs. insult control ([5]; insult LPS (1 uM) 24 hours): +++ (+++=p<0.001); Protection of cell viability, statistical significance vs. insult control ([5]; insult MPP+ (500 uM) 24 hours): +++ (+++=p<0.001)
C[n+]1ccc(-c2ccccc2)cc1 [MPP+, 1-methyl-4-phenylpyridinium, reference compound] |  |  |  |  | Insult effect (% viability vs vehicle) ([5]; 500 uM, 24 hours, with HGF 5 ng/ml): 49.85%
CN1[C@@H]2C[C@@H](OC(=O)[C@H](CO)c3ccccc3)C[C@H]1[C@@H]1O[C@@H]12 [SCO, scopolamine, reference compound] |  |  |  |  | Spontaneous alternations % [6]: 37%
